pIC50: −log10 of the molar value.
What was measured:
Assay type in all cases: biochemical
JAK2-JH1JH2 = JAK2-JH1JH2 (Homo sapiens (Human), UniProt O60674); experiment: Enzymatic inhibition assay (RapidFire HTMS), JAK2; conditions: 30 μM ATP, 40 μM substrate
Text: (§1) LC/MS grade Water and Acetonitrile (ACN), were purchased from HoneyWell, Burdick & Jackson (Muskegon, Mich., USA). Dimethylsulfoxide 99.8% (DMSO) and Trifluoroacetic Acid 99.5% (TFA) were purchased from EMD Chemical (Gibbstown, N.J., USA). Adenosine triphosphate (ATP), 4-Morpholinepropanesulfonic acid (MOPS), Magnesium chloride (MgCl2), ethylenediaminetetraacetic acid (EDTA), dithiothreitol (DTT), formic acid >95% (FA) and Tween-20 were purchased from Sigma (St Louis, Mo., USA). 384-well polypropylene plates, Cat #781280 were purchased from Greiner (Monroe, N.C.), RapidFire™ cartridge A C4 Column (Agilent Technologies, Santa Clara, Calif.).
(§2) The HTMS experiments were performed in positive ionization mode on a RapidFire 300 instrument (Agilent Technologies, Santa Clara, Calif.), coupled with an ABSiex QTrap 4000 system with an Electrospray Ionization source (RF-MS) (Concord, ON, Canada). […] The entire system was operated using the RapidFire software interfaced with Analyst software for the mass spectrometer.
(§3) 11-point dosing series were made for each compound by serially diluting 1:3 or 1:4 in DMSO, with point 12 being a DMSO control. From the serial dilution plates, sample was transferred to a 384 wells assay plate (#781280, Greiner, Monroe, N.C.) using Labcyte Echo (Sunnyvale, Calif.), or Biosero ATS (San Diego, Calif.). The compounds were tested in duplicate. Column 12 was used for positive controls, and column 24 contained negative controls with no enzyme added. A compound from our internal collection, with inhibitory activity for JAK isoforms, was used as a reference compound. The final concentration of DMSO was ≤0.25% in a 20 μL reaction. […] The Tyk2 enzyme was pre-incubated with 2 mM ATP for 30 min prior to the reaction initiation. Immediately after the addition of the enzyme to the reaction mixture, the plate was centrifuged at 1000 rpm for 1 minute and incubated at 25° C. for 45 minutes for JAK 3 and 90 minutes for JAK1, JAK2 and Tyk2. The reaction was quenched by the addition of 20 μL of 0.5% TFA containing 0.15 μM of internal standard peptide using Multidrop Combi reagent dispenser (Thermo Scientific, Waltham, Mass.). […] After the quench, the assay plate was centrifuged at 3000 rpm for 3 minutes and sealed with pierceable aluminum foil (Cat #06644-001, Agilent) using a PlateLoc (Agilent Technologies, Santa Clara, Calif.). The plates then were transferred on to the RapidFire for the MS analysis. Compound inhibition was assessed by a decrease of the phosphorylated product levels in sample wells compared to the non-inhibited enzyme reaction.
(§4) The sample analysis on the RapidFire was performed using a mobile phase A consisting of Water/TFA/FA (100:0.01:0.1, v/v/v), a mobile phase B consisting of ACN/Water/TFA/FA (80:20:0.01:0.1, v/v/v). […] The samples were aspirated directly from the 384 assay plate and delivered onto RF-MS microscale solid-phase C4 extraction cartridge (Type A). The undesired component such as salt, cofactor, detergent and large protein were washed out and the retained analytes (substrate, product and IS) were coeluted directly onto the ABSiex Qtrap 4000 system.

Tyk2-JH1JH2 = Tyk2-JH1JH2 (Homo sapiens (Human), UniProt P29597, C1142A/C936A); experiment: Enzymatic inhibition assay (RapidFire HTMS), Tyk2; conditions: 50 μM ATP, 200 μM substrate
Text: as §1, §2, §3, §4

JAK3-JH1JH2 = JAK3-JH1JH2 (Homo sapiens (Human), UniProt P52333); experiment: Enzymatic inhibition assay (RapidFire HTMS), JAK3; conditions: 150 μM ATP, 40 μM substrate
Text: as §1, §2
as §3, with “compound.” for “compound. The final concentration of DMSO was ≤0.25% in a 20 μL reaction.”
as §4

JAK1-JH1JH2 = JAK1-JH1JH2 (Homo sapiens (Human), UniProt P23458); experiment: Enzymatic inhibition assay (RapidFire HTMS), JAK1; conditions: 12.5 μM ATP, 200 μM substrate; read-out: JAK1-JH2JH1 IC50
Text: as §1, §2, §3, §4

Chain of JAK3-JH1JH2 (P52333 512-1124): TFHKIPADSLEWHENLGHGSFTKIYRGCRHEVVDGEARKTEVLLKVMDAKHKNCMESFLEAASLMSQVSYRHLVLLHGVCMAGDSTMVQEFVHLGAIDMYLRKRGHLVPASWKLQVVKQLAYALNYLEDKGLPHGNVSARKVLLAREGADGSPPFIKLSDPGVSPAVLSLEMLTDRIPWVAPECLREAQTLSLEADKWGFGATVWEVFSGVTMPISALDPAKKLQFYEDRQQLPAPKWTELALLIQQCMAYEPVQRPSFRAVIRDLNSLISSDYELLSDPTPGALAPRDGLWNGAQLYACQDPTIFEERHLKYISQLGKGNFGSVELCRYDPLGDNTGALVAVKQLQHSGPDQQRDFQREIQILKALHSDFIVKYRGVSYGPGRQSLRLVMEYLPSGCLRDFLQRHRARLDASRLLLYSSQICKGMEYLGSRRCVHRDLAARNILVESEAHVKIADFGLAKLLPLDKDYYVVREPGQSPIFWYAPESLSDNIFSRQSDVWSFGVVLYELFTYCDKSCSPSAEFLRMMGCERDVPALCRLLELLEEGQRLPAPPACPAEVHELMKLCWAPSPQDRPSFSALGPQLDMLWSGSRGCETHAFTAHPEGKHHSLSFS
Chain of Tyk2-JH1JH2 (P29597 580-1182 C936A/C1142A): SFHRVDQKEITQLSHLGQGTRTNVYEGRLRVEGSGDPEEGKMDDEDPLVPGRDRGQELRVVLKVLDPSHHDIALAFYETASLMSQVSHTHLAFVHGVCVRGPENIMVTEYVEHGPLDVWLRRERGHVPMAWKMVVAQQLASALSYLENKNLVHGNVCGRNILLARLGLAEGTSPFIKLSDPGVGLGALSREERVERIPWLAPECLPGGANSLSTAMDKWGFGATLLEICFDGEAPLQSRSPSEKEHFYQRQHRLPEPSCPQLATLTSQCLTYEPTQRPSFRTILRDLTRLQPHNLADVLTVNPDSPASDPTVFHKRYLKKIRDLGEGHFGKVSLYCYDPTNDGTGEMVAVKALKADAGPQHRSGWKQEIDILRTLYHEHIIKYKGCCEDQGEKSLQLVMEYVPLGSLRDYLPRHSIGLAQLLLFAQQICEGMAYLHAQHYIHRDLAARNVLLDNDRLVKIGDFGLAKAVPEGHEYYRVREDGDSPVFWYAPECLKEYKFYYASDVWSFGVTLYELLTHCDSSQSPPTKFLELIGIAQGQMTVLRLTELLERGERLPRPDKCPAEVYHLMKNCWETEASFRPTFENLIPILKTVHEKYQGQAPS
Chain of JAK2-JH1JH2 (O60674 532-1132): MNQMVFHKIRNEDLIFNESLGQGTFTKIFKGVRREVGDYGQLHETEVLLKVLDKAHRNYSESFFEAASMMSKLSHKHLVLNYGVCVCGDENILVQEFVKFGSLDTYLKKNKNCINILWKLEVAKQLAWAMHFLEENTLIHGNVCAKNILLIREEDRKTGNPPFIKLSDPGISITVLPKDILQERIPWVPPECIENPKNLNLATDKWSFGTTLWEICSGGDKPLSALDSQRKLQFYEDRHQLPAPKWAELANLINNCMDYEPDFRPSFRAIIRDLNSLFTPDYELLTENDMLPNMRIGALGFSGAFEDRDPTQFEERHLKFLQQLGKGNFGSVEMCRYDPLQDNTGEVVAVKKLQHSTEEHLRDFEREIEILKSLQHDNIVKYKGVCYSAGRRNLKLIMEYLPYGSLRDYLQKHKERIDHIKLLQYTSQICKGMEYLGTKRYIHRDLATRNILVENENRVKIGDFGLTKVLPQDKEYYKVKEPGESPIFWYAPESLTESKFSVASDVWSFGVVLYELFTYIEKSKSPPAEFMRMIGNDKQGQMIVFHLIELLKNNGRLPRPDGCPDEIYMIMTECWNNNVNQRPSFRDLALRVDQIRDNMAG
Chain of JAK1-JH1JH2 (P23458 574-1154): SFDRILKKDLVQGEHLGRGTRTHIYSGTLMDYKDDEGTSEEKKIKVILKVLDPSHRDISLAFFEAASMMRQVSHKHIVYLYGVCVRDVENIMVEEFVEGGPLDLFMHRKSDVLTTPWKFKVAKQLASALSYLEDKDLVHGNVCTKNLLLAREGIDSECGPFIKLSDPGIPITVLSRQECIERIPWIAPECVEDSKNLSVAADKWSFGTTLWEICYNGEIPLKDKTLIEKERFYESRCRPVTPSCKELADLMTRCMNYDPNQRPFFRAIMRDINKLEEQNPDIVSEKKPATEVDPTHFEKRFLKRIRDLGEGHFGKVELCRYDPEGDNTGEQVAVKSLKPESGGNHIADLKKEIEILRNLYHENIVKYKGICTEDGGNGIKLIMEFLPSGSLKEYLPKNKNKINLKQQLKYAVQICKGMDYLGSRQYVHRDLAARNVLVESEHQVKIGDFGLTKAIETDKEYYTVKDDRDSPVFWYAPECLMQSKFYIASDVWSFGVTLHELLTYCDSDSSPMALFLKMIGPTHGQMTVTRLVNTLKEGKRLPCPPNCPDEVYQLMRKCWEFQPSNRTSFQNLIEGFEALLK

For N#CC[C@H]1CC[C@H](n2c(CC(=O)NC34CCC(C#N)(CC3)C4)nc3cnc4[nH]ccc4c32)CC1 [Ex. 23, N-(4-Cyanobicyclo[2.2.1]heptan-1-yl)-2-(1-((1r,4r)-4-(cyanomethyl)cyclohexyl)-1,6-dihydroimidazo[4,5-d]pyrrolo[2,3-b]pyridin-2-yl)acetamide], the pIC50 (JAK2-JH1JH2) was 8.85, the pIC50 (Tyk2-JH1JH2) was 8.46 and the pIC50 (JAK3-JH1JH2) was 7.42. The pIC50 (JAK1-JH1JH2) was 10.00.

Molecule N#CC[C@H]1CC[C@H](n2c(CC(=O)NCC3(O)COC3)nc3cnc4[nH]ccc4c32)CC1 [Ex. 24, 2-(1-((1r,4r)-4-(Cyanomethyl)cyclohexyl)-1,6-dihydroimidazo[4,5-d]pyrrolo[2,3-b]pyridin-2-yl)-N-((3-hydroxyoxetan-3-yl)methyl)acetamide] has a pIC50 (JAK2-JH1JH2) of 8.31, a pIC50 (Tyk2-JH1JH2) of 8.48 and a pIC50 (JAK3-JH1JH2) of 7.24. It also gave a pIC50 (JAK1-JH1JH2) of 10.00.

For N#CC[C@H]1CC[C@H](n2c(CC(=O)N3CCC(N4CCOCC4)CC3)nc3cnc4[nH]ccc4c32)CC1 [Ex. 26, 2-((1r,4r)-4-(2-(2-(4-Morpholinopiperidin-1-yl)-2-oxoethyl)imidazo[4,5-d]pyrrolo[2,3-b]pyridin-1(6H)-yl)cyclohexyl)acetonitrile], the pIC50 (JAK2-JH1JH2) was 8.21, the pIC50 (Tyk2-JH1JH2) was 8.57 and the pIC50 (JAK3-JH1JH2) was 6.97. For the same molecule, the pIC50 (JAK1-JH1JH2) was 10.00.

Work on N#CC[C@H]1CC[C@H](n2c(CC(=O)N[C@H]3CC[C@H](CO)CC3)nc3cnc4[nH]ccc4c32)CC1 [Ex. 27, 2-(1-((1r,4r)-4-(Cyanomethyl)cyclohexyl)-1,6-dihydroimidazo[4,5-d]pyrrolo[2,3-b]pyridin-2-yl)-N-((1r,4r)-4-(hydroxymethyl)cyclohexyl)acetamide] yielded a pIC50 (JAK2-JH1JH2) of 8.54, a pIC50 (Tyk2-JH1JH2) of 8.14 and a pIC50 (JAK3-JH1JH2) of 7.43. For the same molecule, the pIC50 (JAK1-JH1JH2) was 10.00.

Molecule N#CC[C@H]1CC[C@H](n2c(CC(=O)NC3CCCCC3)nc3cnc4[nH]ccc4c32)CC1 [Ex. 28, 2-(1-((1r,4r)-4-(Cyanomethyl)cyclohexyl)-1,6-dihydroimidazo[4,5-d]pyrrolo[2,3-b]pyridin-2-yl)-N-cyclohexylacetamide] has a pIC50 (JAK2-JH1JH2) of 8.62, a pIC50 (Tyk2-JH1JH2) of 8.46 and a pIC50 (JAK3-JH1JH2) of 7.49. It also gave a pIC50 (JAK1-JH1JH2) of 10.00.

N#CC[C@H]1CC[C@H](n2c(CC(=O)NCCO)nc3cnc4[nH]ccc4c32)CC1 [Ex. 29, 2-(1-((1r,4r)-4-(Cyanomethyl)cyclohexyl)-1,6-dihydroimidazo[4,5-d]pyrrolo[2,3-b]pyridin-2-yl)-N-(2-hydroxyethyl)acetamide] showed a pIC50 (JAK2-JH1JH2) of 8.14, a pIC50 (Tyk2-JH1JH2) of 8.42 and a pIC50 (JAK3-JH1JH2) of 7.17. The pIC50 (JAK1-JH1JH2) was 10.00.

N#CC[C@H]1CC[C@H](n2c(CNC(=N)c3ccccc3)nc3cnc4[nH]ccc4c32)CC1 [Ex. 30, N-((1-((1r,4r)-4-(Cyanomethyl)cyclohexyl)-1,6-dihydroimidazo[4,5-d]pyrrolo[2,3-b]pyridin-2-yl)methyl)benzimidamide] gave a pIC50 (JAK2-JH1JH2) of 8.18, a pIC50 (Tyk2-JH1JH2) of 8.80 and a pIC50 (JAK3-JH1JH2) of 6.00. For the same molecule, the pIC50 (JAK1-JH1JH2) was 9.70.

N#CC[C@H]1CC[C@H](n2c(-c3n[nH]cc3Cl)nc3cnc4[nH]ccc4c32)CC1 [Ex. 31, 2-((1r,4r)-4-(2-(4-Chloro-1H-pyrazol-3-yl)imidazo[4,5-d]pyrrolo[2,3-b]pyridin-1(6H)-yl)cyclohexyl)acetonitrile] was tested, and the pIC50 (JAK2-JH1JH2) was 8.26, the pIC50 (Tyk2-JH1JH2) was 8.43 and the pIC50 (JAK3-JH1JH2) was 6.92. For the same molecule, the pIC50 (JAK1-JH1JH2) was 9.70.

In the case of N#CC[C@H]1CC[C@H](n2c(CC(=O)NC34CC5CC(CC(C5)C3)C4)nc3cnc4[nH]ccc4c32)CC1 [Ex. 32, N-((3R,5R)-Adamantan-1-yl)-2-(1-((1r,4r)-4-(cyanomethyl)cyclohexyl)-1,6-dihydroimidazo[4,5-d]pyrrolo[2,3-b]pyridin-2-yl)acetamide], the pIC50 (JAK2-JH1JH2) was 8.89, the pIC50 (Tyk2-JH1JH2) was 8.55 and the pIC50 (JAK3-JH1JH2) was 7.23. For the same molecule, the pIC50 (JAK1-JH1JH2) was 9.70.

Work on N#CC[C@H]1CC[C@H](n2c(CC(=O)N[C@H]3CC[C@H](O)CC3)nc3cnc4[nH]ccc4c32)CC1 [Ex. 33, 2-(1-((1r,4r)-4-(Cyanomethyl)cyclohexyl)-1,6-dihydroimidazo[4,5-d]pyrrolo[2,3-b]pyridin-2-yl)-N-((1r,4r)-4-hydroxycyclohexyl)acetamide] yielded a pIC50 (JAK2-JH1JH2) of 8.64, a pIC50 (Tyk2-JH1JH2) of 8.42 and a pIC50 (JAK3-JH1JH2) of 7.42. The pIC50 (JAK1-JH1JH2) was 9.70.

N#CC[C@H]1CC[C@H](n2c(CC(=O)NCc3cnccn3)nc3cnc4[nH]ccc4c32)CC1 [Ex. 35, 2-(1-((1r,4r)-4-(Cyanomethyl)cyclohexyl)-1,6-dihydroimidazo[4,5-d]pyrrolo[2,3-b]pyridin-2-yl)-N-(pyrazin-2-ylmethyl)acetamide] gave a pIC50 (JAK2-JH1JH2) of 8.44, a pIC50 (Tyk2-JH1JH2) of 8.35 and a pIC50 (JAK3-JH1JH2) of 6.97. The pIC50 (JAK1-JH1JH2) was 9.70.

With N#CC[C@H]1CC[C@H](n2c(CC(=O)NCc3ncc[nH]3)nc3cnc4[nH]ccc4c32)CC1 [Ex. 36, N-((1H-imidazol-2-yl)methyl)-2-(1-((1r,4r)-4-(cyanomethyl)cyclohexyl)-1,6-dihydroimidazo[4,5-d]pyrrolo[2,3-b]pyridin-2-yl)acetamide] the pIC50 (JAK2-JH1JH2) was 9.10, the pIC50 (Tyk2-JH1JH2) was 8.66 and the pIC50 (JAK3-JH1JH2) was 7.92. It also gave a pIC50 (JAK1-JH1JH2) of 9.70.

Work on N#CC[C@H]1CC[C@H](n2c(CC(=O)N[C@H]3C[C@H](O)C3)nc3cnc4[nH]ccc4c32)CC1 [Ex. 37, 2-(1-((1r,4r)-4-(Cyanomethyl)cyclohexyl)-1,6-dihydroimidazo[4,5-d]pyrrolo[2,3-b]pyridin-2-yl)-N-((1R,3R)-3-hydroxycyclobutyl)acetamide] yielded a pIC50 (JAK2-JH1JH2) of 8.34, a pIC50 (Tyk2-JH1JH2) of 8.37 and a pIC50 (JAK3-JH1JH2) of 7.41. The pIC50 (JAK1-JH1JH2) was 9.70.

N#CC[C@H]1CC[C@H](n2c(CC(=O)NCc3ccc(C#N)cc3)nc3cnc4[nH]ccc4c32)CC1 [Ex. 39, N-(4-Cyanobenzyl)-2-(1-((1r,4r)-4-(cyanomethyl)cyclohexyl)-1,6-dihydroimidazo[4,5-d]pyrrolo[2,3-b]pyridin-2-yl)acetamide] gave a pIC50 (JAK2-JH1JH2) of 8.28, a pIC50 (Tyk2-JH1JH2) of 8.00 and a pIC50 (JAK3-JH1JH2) of 6.85. For the same molecule, the pIC50 (JAK1-JH1JH2) was 9.70.

N#CC[C@H]1CC[C@H](n2c(CNC(N)=O)nc3cnc4[nH]ccc4c32)CC1 [Ex. 40, 1-((1-((1r,4r)-4-(Cyanomethyl)cyclohexyl)-1,6-dihydroimidazo[4,5-d]pyrrolo[2,3-b]pyridin-2-yl)methyl)urea] was tested, and the pIC50 (JAK2-JH1JH2) was 9.00, the pIC50 (Tyk2-JH1JH2) was 9.52 and the pIC50 (JAK3-JH1JH2) was 7.33. For the same molecule, the pIC50 (JAK1-JH1JH2) was > 9.70.

Molecule N#CC[C@H]1CC[C@H](n2c(Cc3cscn3)nc3cnc4[nH]ccc4c32)CC1 [Ex. 41, 2-((1r,4r)-4-(2-(Thiazol-4-ylmethyl)imidazo[4,5-d]pyrrolo[2,3-b]pyridin-1(6H)-yl)cyclohexyl)acetonitrile] has a pIC50 (JAK2-JH1JH2) of 9.40, a pIC50 (Tyk2-JH1JH2) of 9.22 and a pIC50 (JAK3-JH1JH2) of 7.70. The pIC50 (JAK1-JH1JH2) was > 9.70.

Reference: US10981911B2, “Imidazopyrrolopyridine as inhibitors of the JAK family of kinases” (Janssen Pharmaceutica NV, priority 2016, dated 2021)
